# “Also recorded” adds a separate entry of the source.
# What was measured:
# [1] = biological target: T1, wild-type AR (Homo sapiens, UniProt P10275); test: Anti-DHT activity on AR transcription, MMTV-Luc reporter in PC-3 cells transfected with AR; format: cell-based; set-up: expressed in transfected cells; host or cells: PC-3; conditions: for suppression of DHT-induced AR transactivation (in words): PC-3, 1 nM DHT, compound at 0.01, 0.1 or 1 μM; for antagonistic effects on DHT-enhanced AR transactivation (in words): compounds related to ADEK, cell line not given
# T1 sequence (P10275 1-920): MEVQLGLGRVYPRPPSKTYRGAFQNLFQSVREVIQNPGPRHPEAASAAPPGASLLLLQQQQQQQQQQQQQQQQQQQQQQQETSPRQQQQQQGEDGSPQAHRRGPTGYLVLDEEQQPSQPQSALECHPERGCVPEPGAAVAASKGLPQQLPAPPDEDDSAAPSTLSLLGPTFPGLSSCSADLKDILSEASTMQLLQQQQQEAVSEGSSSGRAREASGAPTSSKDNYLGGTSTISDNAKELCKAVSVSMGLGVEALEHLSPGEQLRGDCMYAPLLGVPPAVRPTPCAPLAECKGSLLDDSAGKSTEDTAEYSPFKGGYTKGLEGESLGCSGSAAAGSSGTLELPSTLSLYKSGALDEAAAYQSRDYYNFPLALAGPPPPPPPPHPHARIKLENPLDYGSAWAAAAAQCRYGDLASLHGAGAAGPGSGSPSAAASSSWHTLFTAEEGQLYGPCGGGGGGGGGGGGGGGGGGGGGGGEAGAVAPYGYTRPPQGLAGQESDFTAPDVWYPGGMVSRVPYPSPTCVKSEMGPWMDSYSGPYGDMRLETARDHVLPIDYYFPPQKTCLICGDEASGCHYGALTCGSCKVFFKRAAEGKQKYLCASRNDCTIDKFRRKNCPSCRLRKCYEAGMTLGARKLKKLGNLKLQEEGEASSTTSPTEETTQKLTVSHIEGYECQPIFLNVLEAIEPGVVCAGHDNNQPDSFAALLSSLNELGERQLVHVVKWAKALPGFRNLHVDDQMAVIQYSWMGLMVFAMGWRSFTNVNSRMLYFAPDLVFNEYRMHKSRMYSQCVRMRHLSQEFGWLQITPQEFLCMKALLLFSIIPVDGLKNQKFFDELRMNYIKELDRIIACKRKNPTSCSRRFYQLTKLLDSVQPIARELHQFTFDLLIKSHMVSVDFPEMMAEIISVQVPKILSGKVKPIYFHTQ
# Procedure: (§1) Cell Culture, Transfection, and Reporter Gene Assay. The human prostate cancer cell lines, LNCaP, PC-3, and DU145, and non-prostate cancer cell line COS-1 were maintained in RPMI or Dulbecco's modified Eagle's medium (DMEM) (Life Technologies) supplemented with 10% fetal bovine serum (FBS). Transfections and luciferase (Luc) assays were performed as previously described (Miyamoto, H., Yeh, S., Wilding, G. & Chang, C. (1998) Proc. Natl. Acad. Sci. USA 95, 7379-7384; Miyamoto, H., Rahman, M., Takatera, H., Kang, H.-Y., Yeh, S., Chang, H.-C., Nishimura, K., Fujimoto, N. & Chang, C. (2002) J. Biol. Chem. 277, 4609-4617). Briefly, cells seeded to reach a density of 50-60% confluence in 12 well tissue culture plates were transfected with 1.5 μg of DNA according to “SuperFect transfection” instructions (Qiagen). After 2-3 h incubation, cells were treated with medium supplemented with charcoal-stripped FBS containing either ethanol or ligands for 24 h. The cells were then harvested and whole cell extracts were used for Luc assay. The Luc activity was determined using a Dual-Luciferase Reporter Assay System (Promega) and luminometer.
# (§2) To accomplish these studies, PC-3 cells were transfected with the wild-type AR expression plasmid pSG5-AR and MMTV-Luc. […] The Luc activity was measured relative to that of ethanol treatment (set as 1-fold). Values from the mean±SD of at least three determinations were used. PC-3 cells were transfected with the pSG5-AR and MMTV-Luc. […] Values from the mean±SD of at least three determinations were obtained.
# [2] = biological target: T1, wild-type AR; test: AR transcriptional activity (androgenic activity), MMTV-Luc reporter in PC-3 cells transfected with wild-type AR; format: cell-based; set-up: expressed in transfected cells; host or cells: PC-3; conditions: PC-3, wild-type AR plasmid + MMTV-Luc, compound at 1000 nM, 24 h
# Procedure: as §1
# Anti-DHT Effect of DHEA Derivatives with Low Androgenic Activity on AR Transcription. Test compounds as antiandrogenic compounds, were characterized by analysis of their ability to induce AR transcriptional activity in the AR-negative PC-3 cell line. The Luc activity was determined in the cell extracts with transient transfection of wild-type AR plasmid and androgen response element-reporter plasmid (mouse mammary tumor virus (MMTV)-Luc). After transfection, the cells were treated with various compounds at 0.1-1,000 nM.
# as §2
# [3] = system: PSA; test: PSA expression in LNCaP cells, Western blot; format: cell-based, human; conditions: 48 h
# Procedure: Western Blot. […] An antibody for -actin (Santa Cruz Biotechnology) was used as the internal control. Blots were quantitated by Collage software (Fotodyne).
# The 33-kDa protein was quantitated. β-Actin expression was used as an internal control. […] The mean±SD of three separate experiments was determined. […] Total cell number was counted by hemocytometer. The mean of at least three determinations was determined.
# [4] = system: LNCaP cells; test: LNCaP cell growth, cell count by hemocytometer; format: cell-based, human; conditions: 1 nM DHT; 1 μM compound in presence of DHT
# Procedure: The mean±SD of three separate experiments was determined. […] Total cell number was counted by hemocytometer. The mean of at least three determinations was determined.
SMILES,suppression of DHT-induced AR transactivation (in words) [1],also measured
"C[C@]12CC[C@H]3[C@@H]([C@@H](O)C=C4C[C@@H](O)CC[C@@]43C)[C@@H]1CC[C@@H]2O [3β,7β,17β-trihydroxyandrost-5-ene]",little or no capacity,–
"CC(=O)O[C@H]1C=C[C@@]2(C)C(=CC[C@H]3[C@@H]4CC[C@H](O)[C@@]4(C)CC[C@@H]32)C1 [3β-acetoxy-17β-hydroxyandrost-1,5-diene]",less effective,antagonistic effects on DHT-enhanced AR transactivation (in words) [1]: did not show significant antagonistic effects
C[C@]12CC[C@H](O)C[C@@H]1CC[C@@H]1[C@@H]2CC[C@]2(C)C(=O)[C@H](Br)C[C@@H]12 [16α-bromoepiandrosterone],little or no capacity,–
"C[C@]12CC[C@H]3[C@@H](CCC4=C[C@@H](O)CC[C@@]43C)[C@@H]1CC[C@@H]2O [3β,17β-dihydroxyandrost-4-ene]",less effective,–
"C[C@]12CC[C@H]3[C@@H]([C@H](O)C=C4C[C@@H](O)CC[C@@]43C)[C@@H]1CC[C@@H]2O [No. 5, 3β,7α,17β-trihydroxyandrost-5-ene]",modest suppression,induction on AR transcription as compared to mock treatment [2]: marginal induction
"COC(=O)[C@H]1CC[C@@]2(C)C(=CC(=O)[C@@H]3[C@@H]2CC[C@]2(C)C(=O)[C@H](C(=O)OC)C[C@@H]32)C1 [3β,16α-bis-carbomethoxyandrost-5-ene-7,17-dione]",less effective,–
"CC(O)(CS(=O)(=O)c1ccc(F)cc1)C(=O)Nc1ccc(C#N)c(C(F)(F)F)c1 (stereo not shown) [casodex, bicalutamide]",–,DHT-induced PSA expression decreased to (DHT = 100%) ([3]; 1 μM compound + 1 nM DHT): 58%
C[C@]12C=C[C@H](O)CC1=CC[C@@H]1[C@@H]2CC[C@@]2(C)[C@H]1CCC21OCCO1,–,melting point: 138 to 140 °C
"C[C@]12C=C[C@H](O)CC1=CC[C@@H]1[C@@H]2CC[C@]2(C)C(=O)CC[C@@H]12 [No. 16, 3β-hydroxyandrost-1,5-diene-17-one]",modest suppression,antagonistic effects on DHT-enhanced AR transactivation (in words) [1]: did not show significant antagonistic effects; induction on AR transcription as compared to mock treatment [2]: marginal induction
"C[C@]12C=CC(=O)C=C1CC[C@@H]1[C@@H]2CC[C@]2(C)C(=O)CC[C@@H]12 [androst-1,4-diene-3,17-dione]",less effective,antagonistic effects on DHT-enhanced AR transactivation (in words) [1]: did not show significant antagonistic effects
"C[C@]12CC[C@H]3[C@@H]([C@@H](O)C=C4CC5(CC[C@@]43C)OCCO5)[C@@H]1CC[C@@H]2O [7β,17β-dihydroxyandrost-5-ene-3-ethylene ketal]",less effective,–
"CC12CCC3(CC1=CC(O)C1C2CCC2(C)C1CCC21OCCO1)OCCO3 (stereo not drawn) [7α-hydroxyandrost-5-ene-3,17-bis ethylene ketal]",less effective; also recorded: little or no capacity,–
"C[C@]12CC[C@H]3[C@@H]([C@H](O)CC4C[C@@H](O)CC[C@@]43C)[C@@H]1CC[C@@H]2O (stereo partly drawn) [3β,7α,17β-trihydroxyandrostane]",little or no capacity,–
"CC(=O)O[C@H]1C=C[C@@]2(C)C(=CC[C@@H]3[C@@H]2CC[C@]2(C)C(=O)CC[C@@H]32)C1 [No. 14, 3β-acetoxyandrost-1,5-diene-17-one]",modest suppression,antagonistic effects on DHT-enhanced AR transactivation (in words) [1]: did not show significant antagonistic effects; induction on AR transcription as compared to mock treatment [2]: marginal induction
CCC(=O)O[C@H]1CC[C@H]2[C@@H]3C(=O)C=C4CC5(CC[C@]4(C)[C@H]3CC[C@]12C)OCCO5 [17β-propionony-7-oxoandrost-5-en-3-ethylene ketal],little or no capacity,–
"CC(=O)O[C@H]1CC[C@H]2[C@@H]3CC(=O)C4=CC(=O)CC[C@]4(C)[C@H]3CC[C@]12C [17β-acetoxyandrost-4-ene-3,6-dione]",little or no capacity,–
"C[C@]12CCC(=O)C[C@@H]1CC[C@@H]1[C@@H]2CC[C@]2(C)[C@@H](O)CC[C@@H]12 [DHT, dihydrotestosterone, reference compound]",–,"effect on LNCaP cell growth, DHT alone or compound with DHT (in words) [4]: significantly increased cell growth; endogenous PSA expression over mock treatment ([3]; 1 nM DHT or 1 μM HF, casodex, ADEK in absence of DHT): 4.3 fold"
